Read-outs that look alike come from different tables or passages of the source.
Experiments:
[1] = tested on: Differentiating human hippocampal stem cells; assay: Neurogenesis dose-response profile; assay type: cell-based; conditions: for activity at 10 µM: @10000 nM; for activity at 30 µM: @30000 nM; for activity at 3 µM: @3000 nM; for activity at 0.001 µM: @1 nM; for activity at 0.3 µM: @300 nM; for activity at 1 µM: @1000 nM
Protocol: FIG. 4 is a line graph illustrating an example of a neurogenesis dose-response profile of selected compounds. Differentiating human hippocampal stem cells were treated for seven days with varying concentrations of “primary hits”. Subsequently, the cells were fixed, stained with anti-beta tubulin antibody, and positive cells were quantified by Array Scan II. Shown are the number of neurons after each treatment normalized against the no-compound control.
In another in vitro assay, compounds are tested as above at varying concentrations to obtain a dose-response curve and EC50 values (effective concentration of the compound which produces 50% of the maximum possible response for that compound).
Primary dose-response profiles and secondary functional assays are used to further eliminate compounds from the primary screen based on a lack of dose-dependent effect on neurogenesis, indicated by lack of linearity of dose-response, and in vitro neurotoxicity. The dose-response curve measures neurogenesis over a concentration range of 100 pM to 100 μM. […] Table II contains the summary of EC50 of each compound tested.

[2] = tested on: human hippocampal stem cells; assay: Neurogenesis, TuJ1 immunostaining / Hoechst (primary screen); assay type: cell-based; conditions: seven days of compound treatment; for Neuron Number (% of Control): TuJ1+ neurons per area; for Neuron Ratio (% of Control): ratio neuron:total cells (TuJ1/Hoechst)
Excerpt: FIG. 2 is a bar graph illustrating an example of a neurogenesis profile of compounds selected from primary screening. After seven days of compound treatment, the cells were stained with the neuron-specific anti-tubulin IIIb antibody. TuJ1, for neurons and Hoechst for all cell nuclei. Shown are the relative ratio of neuron: total cells for each compound over the vehicle control in percentage. Typical ratio for vehicle control is 40-50% neurons. The ratio can change by either increased differentiation of stem cells to neurons, decreased proliferation of astrocytes, or increased proliferation of neuronal progenitors.
FIG. 3 is a bar graph illustrating an example of a neurogenesis profile of compounds selected from primary screening. After seven days of compound treatment, the cells were stained with TuJ1 for neurons. The number of TuJ1+ neurons per area was quantified and expressed as a relative value to the vehicle treated control.
The final neuron number is detected by immunostaining of the culture with antibodies against neurons and is quantified by counting of the immunopositive neurons and/or by measuring the staining intensity. Therefore, after seven days of compound treatment, the cells are stained with the neuron-specific anti-tubulin IIIb antibody, TuJ1, for neurons and Hoechst for all cell nuclei. The number of TuJ1+ neurons per area is quantified and expressed as a value relative to the vehicle-treated control of Hoechst-stained cells. In this regard, the medium is removed from the wells by decanting and blotting the plates on paper towels. The cells are then fixed in 100 μl of 4% paraformaldehyde per well for thirty minutes at room temperature. The cells are washed three times with 400 μl per well of phosphate-buffered saline (PBS) at pH 7.5 for approximately ten minutes per wash. The plates are then stored at 4° C. in PBS or used immediately for staining.
The cells are subsequently stained with antibodies against neuron-specific antigens according to standard procedures. The staining process includes decanting the PBS and blocking the cells with 100 μl of 5% Normal Goat Serum (NGS) in PBS for one hour at room temperature. The NGS/PBS is decanted and the plates are blotted on a paper towel. The cells are then permeabilized with 0.1% Triton X-100 in PBS for 30 minutes at room temperature.
Typical neuron-specific antigens include Type III-beta tubulin and MAP-2c. The total cell number in each well was quantified by staining the cultures with a nuclear dye such as DAPI or Hoechst according to standard procedures. Therefore, once the cells are permeabilized, 20 μl of TuJ1, monoclonal antibody against neuronal class 111 β-tubulin (CoVance (BabCo) MMS-435P) and 32 μl of anti-GFAP polyclonal (DAKO Z0334) are added to and mixed of PBS with 5% NGS. Final dilutions of TuJ1 and anti-GFAP are 1:400 and 1:250, respectively. 90 μl of the antibody solution is added to each well except two eleventh column. 90 μl of PBS/5% NGS is added to the eleventh column and no cells are added to the twelfth column. The plate(s) are sealed with parafilm and incubated at 4° C. overnight.
After incubating the cells overnight, the antibody solution is decanted and 200 μl of PBS/0.1% Triton X-100 is added to the wells. The plate(s) are placed on a shaker and incubated at room temperature with gentle shaking for ten minutes. The cells are again washed with the PBS/Triton X-100 solution another two times.
Following staining with TuJ1 and anti-GFAP, 20 μl of Alexa Fluor 488 labeled goat anti-moose IgG (H+L) (Molecular Probes A-11001) and 100 μl of LRSC-IgG, goat anti-rabbit (Jackson Immune 111-295-144) is added and mixed with 10 ml of PBS/5% NGS. 100 μl of the resulting antibody solution is added to each well. The plate(s) are covered with foil and incubated with gentle shaking for up to one hour at room temperature. The cells are again washed as described above with PBS and an Triton X-100. […]

[3] = Homo sapiens, Neuron, 168 h, normalized against no-compound control, read-out: Neuron# Eff
[4] = Homo sapiens, Neuron, 168 h, read-out: % Neuron Ratio Eff
[5] = Homo sapiens, Neuron, 168 h, seven days, 100 pM to 100 μM

EC50 [1, 5] [nM]	SMILES	activity at 30 µM [1, 4] [%]	Neuron Number (% of Control) [2]	Neuron Ratio (% of Control) [2]	activity at 30 µM [1, 3] [%]	activity at 0.3 µM [1, 3] [%]	other results
> 1000	CC(C)(C)OC(=O)NCCNC(=O)c1cccnc1NCC1CCCCC1 [NSI-157]	146	135 ± 15 % of Control	142 ± 6 % of Control			activity at 10 µM [1, 3]: 113%
2160	COc1ccc(CCNc2ncc(C(N)=O)c(NC3CC3)n2)cc1OC [NSI-130]	144	124 ± 8 % of Control	128 ± 4 % of Control			activity at 10 µM [1, 3]: 202%
85	C=CCNC(=O)c1cccnc1NCc1ccccc1OC [NSI-150]	112	107 ± 29 % of Control	99 ± 6 % of Control			activity at 3 µM [1, 3]: 227%
13.5	NC(=O)c1cnc(NCc2ccc(Cl)cc2)nc1NCC1CCCCC1 [NSI-144]		179 ± 29 % of Control	137 ± 8 % of Control		186	activity at 0.3 µM [1, 4]: 138%
> 1000	CCCNc1ncc(C(N)=O)c(NC2CCCC2)n1 [NSI-137]	126	151 ± 40 % of Control	116 ± 8 % of Control	145		
13	CCN(CCNC(=O)c1cccnc1NCCC(C)C)Cc1cccnc1 [NSI-190]		130 ± 22 % of Control	127 ± 9 % of Control		165	activity at 0.001 µM [1, 4]: 128%

The remaining lines, values behind:

SMILES	EC50 [1, 5] [nM]	activity at 30 µM [1, 4] [%]	Neuron Number (% of Control) [2]	Neuron Ratio (% of Control) [2]	activity at 30 µM [1, 3] [%]	activity at 0.3 µM [1, 3] [%]	other results
CS(=O)(=O)N(CC(=O)NCc1nc2ccccn2c1NCc1ccccc1)c1ccccc1 [NSI-185]	786	112	141 ± 70 % of Control	135 ± 15 % of Control			activity at 3 µM [1, 3]: 132%
O=C(c1cccnc1N1CCNCC1)N1CCN(Cc2ccncc2)CC1 [NSI-142]	0.001	123	152 ± 22 % of Control	125 ± 15 % of Control	175		
CS(=O)(=O)N1CCCCC1C(=O)NCc1ccc(Nc2c(C3CC3)nc3ccccn23)cc1 (stereo not drawn) [NSI-127]	1.5		81 ± 13 % of Control	104 ± 8 % of Control	137		activity at 0.01 µM ([1]; Homo sapiens, Neuron, 168 h, @10 nM, read-out: % Neuron Ratio Eff): 114%
O=C(COc1ccccc1)NCc1nc2ccccn2c1NCC1CCCO1 (stereo not drawn) [NSI-183]	0.05		128 ± 13 % of Control	131 ± 4 % of Control		140	activity at 0.001 µM [1, 4]: 112%; % Neuron Ratio EC50 ([1]; seven days, 100 pM to 100 μM): No Curve
O=C(NC1CCN(Cc2ccccc2)CC1)c1cccnc1N1CCNCC1 [NSI-143]	4.8	112	143 ± 6 % of Control	130 ± 14 % of Control	115		
NC(=O)C1CCCN1C(=O)c1cccnc1NCC1CCCCC1 (stereo not drawn) [NSI-158]	0.2		93 ± 17 % of Control	106 ± 9 % of Control		145	activity at 3 µM [1, 4]: 106%
CC(C)CCNc1ncccc1C(=O)N1CCN(Cc2ccccc2)CC1 [NSI-189]	253	141	102 ± 41 % of Control	130 ± 19 % of Control	165		
O=C(NCc1nc2ccccn2c1NCC1CCCO1)Oc1ccccc1 (stereo not drawn) [NSI-182]	0.1		95 ± 9 % of Control	125 ± 10 % of Control		123	activity at 10 µM [1, 4]: 112%
CCCCNc1c(C2CCN(C(=O)c3ccc(C#N)cc3)CC2)nc2ccccn12 [NSI-149]	< 0.1		113 ± 16 % of Control	100 ± 6 % of Control			activity at 1 µM [1, 3]: 124%; activity at 1 µM [1, 4]: 111%
CCCCNc1c(C2CCN(C(=O)CN(CC(C)C)S(C)(=O)=O)CC2)nc2cnccn12 [NSI-106]	0.07		77 ± 12 % of Control	92 ± 6 % of Control		157	activity at 0.1 µM ([1]; Homo sapiens, Neuron, 168 h, @100 nM, read-out: % Neuron Ratio Eff): 165%
